US7879884B2, “Aryl pyridyl sulfonamide derivatives, their manufacture and use as pharmaceutical agents” (Hoffmann-La Roche Inc., priority 2007, dated 2011)

Test system: HCT 116 cells
Assay: CellTiter-Glo Luminescent Cell Viability Assay in HCT 116 cells
Format: cell-based
Settings: HCT 116 human colon carcinoma cells, 5 days (120 h) incubation, CellTiter-Glo luminescence, triplicate
From the text: CellTiter-Glo™ Assay in HCT 116 Cells
The CellTiter-Glo™ Luminescent Cell Viability Assay (Promega) is a homogeneous method of determining the number of viable cells in culture based on quantitation of the ATP present, which signals the presence of metabolically active cells.
HCT 116 cells (human colon carcinoma, ATCC-No. CCI-247) were cultivated in RPMI 1640 medium with GlutaMAX™ I (Invitrogen, Cat-No. 61870-010), 5% Fetal Calf Serum (FCS, Sigma Cat-No. F4135 (FBS)); 100 Units/ml penicillin/[…] streptomycin (=Pen/Strep from Invitrogen Cat. No. 15140).
For the assay the cells were seeded in 384 well plates, 1000 cells per well, in the same medium. The next day the test compounds were added in various concentrations ranging from 30 μM to 0.0015 μM (10 concentrations, 1:3 diluted). After 5 days the CellTiter-Glo™ assay was done according to the instructions of the manufacturer (CellTiter-Glo™ Luminescent Cell Viability Assay, from Promega). In brief: the cell-plate was equilibrated to room temperature for approximately 30 minutes and than the CellTiter-Glo™ reagent was added. The contents were carefully mixed for 15 minutes to induce cell lysis. After 45 minutes the luminescent signal was measured in Victor 2, (scanning multiwell spectrophotometer, Wallac).
• Medium: RPMI 1640 with GlutaMAX™ I (Invitrogen, Cat-Nr. 61870), 5% FCS (Sigma Cat.-No. F4135), Pen/Strep (Invitrogen, Cat No. 15140). • HCT116 (ATCC-No. CCI-247): 1000 cells in 60 μl per well of 384 well plate (Greiner 781098, μClear-plate white) • After seeding incubate plates 24 h at 37° C., 5% CO2 2nd. day: Induction (Treatment with Compounds, 10 Concentrations):
In order to achieve a final concentration of 30 μM as highest concentration 3.5 μl of 10 mM compound stock solution were added directly to 163 μl media. Then step e) of the dilution procedure described below, was followed.

Row | IC50 [µM] | Compound
1 | 0.5 to 7.5 | Cc1cc(S(=O)(=O)NC(=O)c2ccc(F)cc2Cl)cnc1-c1ccccc1Cl [Example 1-15, 6-(2-Chloro-phenyl)-5-methyl-pyridine-3-sulfonic acid 2-chloro-4-fluoro-benzoylamide]
2 | 0.5 to 7.5 | COc1cc(Cl)ccc1C(=O)NS(=O)(=O)c1ccc(-c2c(OC)cccc2OC)nc1 [Example 1-4, 6-(2,6-Dimethoxy-phenyl)-pyridine-3-sulfonic acid 4-chloro-2-methoxy-benzoylamide]
3 | 0.5 to 7.5 | COc1cc(Cl)ccc1C(=O)NS(=O)(=O)c1ccc(-c2c(C)cc(C)cc2C)nc1 [Example 1-5, 6-(2,4,6-Trimethyl-phenyl)-pyridine-3-sulfonic acid 4-chloro-2-methoxy-benzoylamide]
4 | 0.5 to 7.5 | O=C(NS(=O)(=O)c1ccc(-c2ccc(C(F)(F)F)cc2C(F)(F)F)nc1)c1ccc(Cl)cc1Cl [Example 1-9, 6-(2,4-Bis-trifluoromethyl-phenyl)-pyridine-3-sulfonic acid 2,4-dichloro-benzoylamide]
5 | 0.5 to 7.5 | Cc1cc(S(=O)(=O)NC(=O)c2ccc(F)cc2C(F)(F)F)cnc1-c1ccccc1Cl [Example 1-14, 6-(2-Chloro-phenyl)-5-methyl-pyridine-3-sulfonic acid 4-fluoro-2-trifluoromethyl-benzoylamide]
6 | 0.5 to 7.5 | COc1cccc(OC)c1-c1ccc(S(=O)(=O)NC(=O)c2ccc(F)cc2Cl)cn1 [Example 1-2, 6-(2,6-Dimethoxy-phenyl)-pyridine-3-sulfonic acid 2-chloro-4-fluoro-benzoylamide]
7 | 0.5 to 7.5 | CSc1ccccc1-c1ccc(S(=O)(=O)NC(=O)c2ccc(Cl)cc2Cl)cn1 [Example 1-7, 6-(2-Methylsulfanyl-phenyl)-pyridine-3-sulfonic acid 2,4-dichloro-benzoylamide]
8 | 0.5 to 7.5 | COc1cc(Cl)ccc1C(=O)NS(=O)(=O)c1cnc(-c2ccccc2Cl)c(C)c1 [Example 1-16, 6-(2-Chloro-phenyl)-5-methyl-pyridine-3-sulfonic acid 4-chloro-2-methoxy-benzoylamide]
9 | 0.5 to 7.5 | COc1cc(Cl)ccc1C(=O)NS(=O)(=O)c1ccc(-c2c(C)cccc2C)nc1 [Example 1-6, 6-(2,6-Dimethyl-phenyl)-pyridine-3-sulfonic acid 4-chloro-2-methoxy-benzoylamide]
10 | 0.5 to 7.5 | COc1cc(Cl)ccc1C(=O)NS(=O)(=O)c1ccc(-c2ccccc2NS(C)(=O)=O)nc1 [Example 1-11, 6-(2-Methanesulfonylamino-phenyl)-pyridine-3-sulfonic acid 4-chloro-2-methoxy-benzoylamide]

Further lines, the compound ahead of its results:

Row | Compound | IC50 [µM]
11 | COc1cccc(OC)c1-c1ccc(S(=O)(=O)NC(=O)c2ccc(Cl)cc2Cl)cn1 [Example 1-1, 6-(2,6-Dimethoxy-phenyl)-pyridine-3-sulfonic acid 2,4-dichloro-benzoylamide] | 1.43
12 | COc1ccccc1-c1ncc(S(=O)(=O)NC(=O)c2ccc(F)cc2C(F)(F)F)cc1C [Example 1-13, 6-(2-Methoxy-phenyl)-5-methyl-pyridine-3-sulfonic acid 4-fluoro-2-trifluoromethyl-benzoylamide] | 0.5 to 7.5
13 | CS(=O)(=O)c1ccccc1-c1ccc(S(=O)(=O)NC(=O)c2ccc(Cl)cc2Cl)cn1 [Example 1-8, 6-(2-Methanesulfonyl-phenyl)-pyridine-3-sulfonic acid 2,4-dichloro-benzoylamide] | 2.94
14 | COc1cccc(F)c1-c1ccc(S(=O)(=O)NC(=O)c2ccc(Cl)cc2Cl)cn1 [Example 1-10, 6-(2-Fluoro-6-methoxy-phenyl)-pyridine-3-sulfonic acid 2,4-dichloro-benzoylamide] | 0.5 to 7.5
15 | COc1ccccc1-c1ncc(S(=O)(=O)NC(=O)c2ccc(Cl)cc2Cl)cc1C [Example 1-12, 6-(2-Methoxy-phenyl)-5-methyl-pyridine-3-sulfonic acid 2,4-dichloro-benzoylamide] | 3.98
16 | COc1cccc(OC)c1-c1ccc(S(=O)(=O)NC(=O)c2ccc(F)cc2C(F)(F)F)cn1 [Example 1-3, 6-(2,6-Dimethoxy-phenyl)-pyridine-3-sulfonic acid 4-fluoro-2-trifluoromethyl-benzoylamide] | 0.5 to 7.5
